This note sets out measurements from ChEMBL document CHEMBL1201862, “PubChem BioAssay data set” (2004).

Test systems include DMS-114; LXFL 529; M19-MEL; 786-0; MDA-MB-231; DMS-273; KM-20L2; RXF 631; T47D.
Holding throughout (experiment): growth of human tumour cells (NCI), 48 h

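Briefly, cells in 96-well plates were exposed to five compound concentrations for 48 h, and endpoints were estimated by linear interpolation. Abbreviation: GI50, concentration required for 50% inhibition of growth.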 The source made the active and inactive calls. Cut-off read from the data, not from the text of the source: active = GI50 up to about 1.1 µM and inactive = higher.

On to `CCCCCCCCCCCCCCCc1nnc(S)[nH]1`, for which the GI50 in the assay on DMS-114 was 60.4 µM (inactive); in the assay with LXFL 529 it was 30.5 µM (inactive); in the assay with M19-MEL, > 100 µM (inactive).
Consider `CN1C(=O)C(C#N)C2C[C@@]1(C)Oc1ccccc12` (some centres not stated), for which the GI50 with 786-0 and in the assay with MDA-MB-231 was > 100 µM (inactive) throughout.
Take `CC1(C)OC[C@H](C(=N)OCc2ccccc2)O1`: the GI50 in the assay with DMS-114, with DMS-273, with KM-20L2, in the assay with LXFL 529 and in the assay with M19-MEL was > 100 µM (inactive) each time.
Turning to `C=C1CC[C@@H](Br)C(C)(C)[C@]12CCC(C)(O)C(Cl)C2` (some centres not stated), the GI50 is 17.2 µM (inactive) in the assay with DMS-114; 18.8 µM (inactive) in the assay on DMS-273; 18.3 µM (inactive) with KM-20L2; 18.8 µM (inactive) in the assay on M19-MEL; 18.5 µM (inactive) with RXF 631.
For `CSCCCNC(=O)c1csc(-c2csc(CCNC(=O)CNC(=O)CNC(=O)CNC(=O)OC(C)(C)C)n2)n1`, the GI50 with 786-0 and in the assay with MDA-MB-231 was > 100 µM (inactive) each time.
For the compound `Nc1c(S(=O)(=O)O)cc(S(=O)(=O)O)c2ccc(/N=N/c3ccc(/C=C/c4ccc(/N=N/c5ccc6c(S(=O)(=O)O)cc(S(=O)(=O)O)c(N)c6c5O)cc4S(=O)(=O)O)c(S(=O)(=O)O)c3)c(O)c12`, the GI50 was > 100 µM (inactive) in the assay with DMS-114, > 100 µM (inactive) with DMS-273, 79.4 µM (inactive) in the assay with KM-20L2 and > 100 µM (inactive) in the assay with M19-MEL.
As for `O=c1oc2ccccc2n1P(=O)(Oc1ccc(Cl)cc1)n1c(=O)oc2ccccc21`, the GI50 was > 100 µM (inactive) in the assay with DMS-114, 78.9 µM (inactive) with DMS-273, > 100 µM (inactive) in the assay with KM-20L2 and > 100 µM (inactive) in the assay with M19-MEL.
On to `CC(=O)OCCOCn1cc(C=O)c2ccccc21`, for which the GI50 with 786-0, in the assay with MDA-MB-231 and in the assay on T47D was > 100 µM (inactive) each time.
Regarding `CC(=O)/N=C1\N/C(=C/c2cc([N+](=O)[O-])ccc2O)CN1C`, the GI50 in the assay with 786-0, in the assay on MDA-MB-231 and in the assay with T47D was > 100 µM (inactive) throughout.
As for `O=C(NN1C(=O)CSC1c1ccc(C(F)(F)F)cc1)c1ccncc1` (configuration not stated), the GI50 in the assay on DMS-114, in the assay on DMS-273, in the assay on KM-20L2 and in the assay on M19-MEL was > 100 µM (inactive) each time.
Regarding `Clc1cc(N/N=C(\c2ccccc2)c2ccccn2)ncn1`, the GI50 in the assay on MDA-MB-231 is 0.0252 µM (active); with T47D, < 0.01 µM (active).
In the case of `N/C(=N\O)N/N=C/c1ncccc1O`, the GI50 in the assay with DMS-114 is 8.05 µM (inactive); in the assay on DMS-273 it was 7.28 µM (inactive); in the assay with KM-20L2 it was 10.4 µM (inactive); in the assay with M19-MEL, 19.2 µM (inactive).
Regarding `N#Cc1c(N)c2c(c(-c3ccccc3)c1-c1ccccc1)C(=O)N(NC(=S)Nc1ccccc1)C2=O`, the results for the GI50 in the assay with 786-0, with MDA-MB-231 and with T47D were > 100 µM (inactive), > 100 µM (inactive) and 48.2 µM (inactive), respectively.
On to `CCOC(=O)CCc1c(C)c2c(O)cc(O)cc2oc1=O`, for which the GI50 in the assay with DMS-273, in the assay with KM-20L2 and in the assay on M19-MEL was > 100 µM (inactive) in each case.
As to `CC(=O)O[C@H]1CC[C@H]2[C@@H]3CCC(C(C)=O)[C@H](C(=O)O)[C@H]3CC[C@]12C` (some centres not stated), in the assay on MDA-MB-231, the GI50 was > 100 µM (inactive).
As to `O=C1OC(CN2CCOCC2)CN1/N=C/c1ccc([N+](=O)[O-])o1` (configuration not stated) [FURALTADONE], the GI50 in the assay on 786-0 was 62.7 µM (inactive); in the assay with MDA-MB-231, 33.3 µM (inactive); in the assay on T47D it was 28.8 µM (inactive).
Take `CCOC(=O)/C=C1/C(CCCOCc2ccccc2)C2CCCC23CC2(CCN13)OCCO2` (configuration not stated): the GI50 was 13.9 µM (inactive) in the assay on DMS-114; 16.8 µM (inactive) in the assay with DMS-273; 22.3 µM (inactive) with KM-20L2; 22.2 µM (inactive) in the assay with LXFL 529; 19.6 µM (inactive) in the assay with M19-MEL; 30.1 µM (inactive) in the assay on RXF 631.
For the compound `CCOc1ncn(-c2ccc(NC(=S)Nc3cccc(O)c3)cc2)n1`, the GI50 in the assay with MDA-MB-231 and in the assay on T47D was > 100 µM (inactive) throughout.
As to `CCCCC(CC)C(=O)Oc1ccc(C(=O)c2ccccc2)c(O)c1` (configuration not stated), the GI50 was > 100 µM (inactive) with MDA-MB-231 and 45.7 µM (inactive) in the assay with T47D.
As for `COc1cc(OC)cc(Oc2nc3cc(F)c(F)cc3nc2-c2ccccc2)c1`, the GI50 in the assay on 786-0 and in the assay with T47D was > 100 µM (inactive) throughout.
Take `CC12CCC(=O)N1c1cnccc1N2` (configuration not stated): the GI50 in the assay on DMS-114, in the assay on DMS-273, in the assay with KM-20L2 and in the assay on LXFL 529 was > 100 µM (inactive) each time.
